# Measured values from ChEMBL document CHEMBL3745615, “Synthesis, characterization and biological evaluation of anti-cancer indolizine derivatives via inhibiting β-catenin activity and activating p53” (2016).
# Key:
# A549 [1] = assay: Antiproliferative activity against human A549 cells after 3 days by CCK8 assay; assay type: functional; parameters: concentration or dose not given beside the values
# [2] = biological target: T1, Catenin beta-1 (Homo sapiens) (UniProt P35222); assay: Inhibition of beta-catenin transcriptional activity in human A549 cells after 24 hrs by luciferase reporter assay; assay type: cell-based; parameters: concentration or dose not given beside the values
# T1 sequence (whole entry): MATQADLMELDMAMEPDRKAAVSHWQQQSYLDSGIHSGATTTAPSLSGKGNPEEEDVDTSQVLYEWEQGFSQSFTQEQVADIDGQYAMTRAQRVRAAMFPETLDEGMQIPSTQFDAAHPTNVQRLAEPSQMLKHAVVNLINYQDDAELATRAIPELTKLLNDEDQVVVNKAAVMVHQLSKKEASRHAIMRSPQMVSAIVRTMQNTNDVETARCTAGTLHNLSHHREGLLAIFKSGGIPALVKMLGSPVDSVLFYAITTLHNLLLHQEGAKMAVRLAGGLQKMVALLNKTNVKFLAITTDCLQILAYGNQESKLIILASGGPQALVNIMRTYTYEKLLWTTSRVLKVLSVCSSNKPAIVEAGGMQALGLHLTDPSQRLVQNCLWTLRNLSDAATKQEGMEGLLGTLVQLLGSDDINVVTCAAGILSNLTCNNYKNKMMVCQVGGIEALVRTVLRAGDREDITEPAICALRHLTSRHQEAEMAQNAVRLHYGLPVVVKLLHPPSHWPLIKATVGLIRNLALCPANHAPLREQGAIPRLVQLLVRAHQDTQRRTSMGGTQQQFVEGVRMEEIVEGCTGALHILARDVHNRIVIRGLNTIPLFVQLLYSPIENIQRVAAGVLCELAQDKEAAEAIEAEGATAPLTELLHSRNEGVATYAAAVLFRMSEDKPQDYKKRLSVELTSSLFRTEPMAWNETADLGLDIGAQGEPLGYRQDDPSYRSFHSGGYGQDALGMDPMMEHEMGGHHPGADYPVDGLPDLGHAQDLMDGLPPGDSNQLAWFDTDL
# A549 [3] = assay: Induction of apoptosis in human A549 cells assessed as dead cells at 3 uM after 1 day by annexin V staining-based flow cytometric analysis (reference value: 0.2%); assay type: functional
# A549 [4] = assay: Induction of apoptosis in human A549 cells at 3 uM by annexin V staining-based flow cytometric analysis; assay type: functional, cell-based; details: TDE = time-dependent effect
# A549 [5] = assay: Induction of apoptosis in human A549 cells assessed as up regulation of phosphorylated p53 (S46) level at 3 uM incubated for 12 to 24 hrs by Western blot analysis; assay type: functional, cell-based; details: TDE = time-dependent effect
# A549 [6] = assay: Induction of apoptosis in human A549 cells assessed as live cells at 3 uM after 3 days by annexin V staining-based flow cytometric analysis (reference value: 98%); assay type: functional
# A549 [7] = assay: Induction of apoptosis in human A549 cells assessed as dead cells at 3 uM after 3 days by annexin V staining-based flow cytometric analysis (reference value: 0.2%); assay type: functional
# A549 [8] = assay: Induction of apoptosis in human A549 cells assessed as up regulation of phosphorylated p53 (S392) level at 3 uM incubated for 12 to 24 hrs by Western blot analysis; assay type: functional, cell-based; details: TDE = time-dependent effect
# A549 [9] = assay: Induction of apoptosis in human A549 cells assessed as late apoptotic cells at 3 uM after 2 days by annexin V staining-based flow cytometric analysis (reference value: 0.5%); assay type: functional
# A549 [10] = assay: Induction of apoptosis in human A549 cells assessed as late apoptotic cells at 3 uM after 3 days by annexin V staining-based flow cytometric analysis (reference value: 0.5%); assay type: functional
# A549 [11] = assay: Induction of apoptosis in human A549 cells assessed as dead cells at 3 uM after 2 days by annexin V staining-based flow cytometric analysis (reference value: 0.2%); assay type: functional
# A549 [12] = assay: Induction of apoptosis in human A549 cells assessed as early apoptotic cells at 3 uM after 3 days by annexin V staining-based flow cytometric analysis (reference value: 1.3%); assay type: functional
# A549 [13] = assay: Induction of apoptosis in human A549 cells assessed as live cells at 3 uM after 1 day by annexin V staining-based flow cytometric analysis (reference value: 98%); assay type: functional
# A549 [14] = assay: Induction of apoptosis in human A549 cells assessed as early apoptotic cells at 3 uM after 1 day by annexin V staining-based flow cytometric analysis (reference value: 1.3%); assay type: functional
# A549 [15] = assay: Induction of apoptosis in human A549 cells assessed as late apoptotic cells at 3 uM after 1 day by annexin V staining-based flow cytometric analysis (reference value: 0.5%); assay type: functional
# A549 [16] = assay: Induction of apoptosis in human A549 cells assessed as up regulation of phosphorylated p53 (S15) level at 3 uM incubated for 12 to 24 hrs by Western blot analysis; assay type: functional, cell-based; details: TDE = time-dependent effect
# A549 [17] = assay: Induction of apoptosis in human A549 cells assessed as live cells at 3 uM after 2 days by annexin V staining-based flow cytometric analysis (reference value: 98%); assay type: functional
# A549 [18] = assay: Induction of apoptosis in human A549 cells assessed as early apoptotic cells at 3 uM after 2 days by annexin V staining-based flow cytometric analysis (reference value: 1.3%); assay type: functional
Compound,Activity (A549 [1]),Activity [2],also measured
N#Cc1cc2cccn2c(C(=O)c2ccc(OCc3ccccc3)cc2)c1N,35.05%,69.1%,–
N#Cc1cc2cccn2c(C(=O)c2ccccc2)c1N,13.75%,26.2%,–
O=C1CCCc2c1cc1cccn1c2C(=O)c1ccc(F)cc1,40.94%,66.2%,–
COc1ccc(C(=O)c2c(N)c(C#N)cc3cccn23)cc1,Dose-dependent effect,7.03%,Activity (A549 [3]): 1.15%; Activity (A549 [1]; record 2): 0%; Activity (A549 [4]): tde; Activity (A549 [5]): tde; Activity (A549 [6]): 39.8%; Activity (A549 [7]): 0.95%; Activity (A549 [8]): tde; Activity (A549 [9]): 9.7%; Activity (A549 [10]): 43.65%; Activity (A549 [11]): 2.25%; Activity (A549 [12]): 15.6%; Activity (A549 [13]): 88.55%; Activity (A549 [14]): 8%; Activity (A549 [15]): 2.3%; Activity (A549 [16]): tde; Activity (A549 [17]): 73.35%; Activity (A549 [18]): 14.7%
CC(=O)c1cc2cccn2c(C(=O)c2ccccc2)c1C,92.02%,90.3%,–
O=C1CCCc2c1cc1cccn1c2C(=O)c1ccccc1,55.44%,67.3%,–
N#Cc1cc2cccn2c(C(=O)c2ccc(F)cc2)c1N,1.51%,22.2%,–
Cc1c(C(=O)O)cc2cccn2c1C(=O)c1ccccc1,101.93%,79.1%,–
N#Cc1cc2cccn2c(C(=O)c2ccc(Cl)cc2)c1N,2.87%,13.6%,–
CC(=O)c1cc2cccn2c(C(=O)c2ccc(Cl)cc2)c1C,79.46%,52.9%,–
O=C1CCCc2c1cc1cccn1c2C(=O)c1ccc(Cl)cc1,47.73%,64.5%,–
COc1ccc(C(=O)c2c3c(cc4cccn24)C(=O)CCC3)cc1,51.36%,67.5%,–
CCOC(=O)c1c(N)c(C#N)cc2cccn12,85.35%,47%,–
CCOC(=O)c1cc2cccn2c(C(=O)c2ccc(OC)cc2)c1N,98.46%,86.4%,–
